Data as given in patent publication US8129532B2, “Amino(oligo)thiophene dyes, preparation thereof, and optical methods of use” (The University of Connecticut, priority 2007, dated 2012).

System: NIE-115 mouse neuroblastoma
Experiment: SHG and 2PF voltage sensitivity, 50 mV step, slow switching protocol on patch-clamped neuroblastoma cell
Type: cell-based
Conditions: comparator named in the sentence (PY-1266; PY-1268)
Excerpt: For full details of our non-linear imaging microscope, we refer the reader to previously published descriptions. A. C. Millard, P. J. Campagnola, W. Mohler, A. Lewis, and L. M. Loew, “Second Harmonic Imaging Microscopy,” Meth. Enzymol. 361, 47-69 (2003); Millard, A. C., L. Jin, and L. M. Loew, “Second Harmonic Generation Imaging Microscopy with a High Power Ultrafast Fiber Laser,”Commercial and Biomedical Applications of Ultrafast Lasers. 5714-5716, 92-98 (2005); A. C. Millard, L. Jin, M.-D. Wei, J. P. Wuskell, A. Lewis, and L. M. Loew, “Sensitivity of Second Harmonic Generation from Styryl Dyes to Transmembrane Potential,” Biophys. J. 86, 1169-1176 (2004). Our current microscope combines a Fluoview (Olympus) scan-head and an Axiovert (Zeiss) inverted microscope constructed for multiple imaging methodologies including wide-field, one-photon excitation fluorescence imaging, as well as SHG and 2PF imaging. Our laser sources include a Mira (Coherent) Ti:sapphire laser and a Femtopower (Fianium) fiber laser operating at 1064 nm. […] Fluorescence is imaged (for linear imaging) or collected (for non-linear imaging) back through the excitation objective, while SHG is collected in the forward, transmitted light direction by a condenser, either 0.8 NA or 0.55 NA (Zeiss). […]

CCN(CC)c1ccc(-c2ccc(/C=C/c3cc[n+](CCC[N+](CC)(CC)CC)cc3)s2)s1 [PY-1261, Di-2-BTEPPTEA]
SHG signal sensitivity relative to another dye: more than five times larger
